# According to patent US8168651B2, “Protein kinase modulators” (Cylene Pharmaceuticals, Inc., priority 2008, dated 2012):
# Experiments:
# Experiment in all cases: Standardized radiometric kinase assays, percentage of activity at 0.5 μM;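 also: Read-out is ³³P-labelled substrate protein phosphorylated by each kinase, captured on filters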
# [1] = molecular target: each individual kinase of the panel (Homo sapiens, UniProt P19784)
# [2] = molecular target: each individual kinase of the panel (Homo sapiens, UniProt Q9HBH9)
# [3] = molecular target: each individual kinase of the panel (Homo sapiens, UniProt Q9HBY8)
# [4] = molecular target: each individual kinase of the panel (Homo sapiens, UniProt P80192)
# [5] = molecular target: each individual kinase of the panel (Homo sapiens, UniProt O43318)
# [6] = molecular target: each individual kinase of the panel (Homo sapiens, UniProt O96017, I157T)
# [7] = molecular target: each individual kinase of the panel (Homo sapiens, UniProt P29322)
# Chain of each individual kinase of the panel (Homo sapiens, UniProt P29322) (P29322 28-1005 limits assumed): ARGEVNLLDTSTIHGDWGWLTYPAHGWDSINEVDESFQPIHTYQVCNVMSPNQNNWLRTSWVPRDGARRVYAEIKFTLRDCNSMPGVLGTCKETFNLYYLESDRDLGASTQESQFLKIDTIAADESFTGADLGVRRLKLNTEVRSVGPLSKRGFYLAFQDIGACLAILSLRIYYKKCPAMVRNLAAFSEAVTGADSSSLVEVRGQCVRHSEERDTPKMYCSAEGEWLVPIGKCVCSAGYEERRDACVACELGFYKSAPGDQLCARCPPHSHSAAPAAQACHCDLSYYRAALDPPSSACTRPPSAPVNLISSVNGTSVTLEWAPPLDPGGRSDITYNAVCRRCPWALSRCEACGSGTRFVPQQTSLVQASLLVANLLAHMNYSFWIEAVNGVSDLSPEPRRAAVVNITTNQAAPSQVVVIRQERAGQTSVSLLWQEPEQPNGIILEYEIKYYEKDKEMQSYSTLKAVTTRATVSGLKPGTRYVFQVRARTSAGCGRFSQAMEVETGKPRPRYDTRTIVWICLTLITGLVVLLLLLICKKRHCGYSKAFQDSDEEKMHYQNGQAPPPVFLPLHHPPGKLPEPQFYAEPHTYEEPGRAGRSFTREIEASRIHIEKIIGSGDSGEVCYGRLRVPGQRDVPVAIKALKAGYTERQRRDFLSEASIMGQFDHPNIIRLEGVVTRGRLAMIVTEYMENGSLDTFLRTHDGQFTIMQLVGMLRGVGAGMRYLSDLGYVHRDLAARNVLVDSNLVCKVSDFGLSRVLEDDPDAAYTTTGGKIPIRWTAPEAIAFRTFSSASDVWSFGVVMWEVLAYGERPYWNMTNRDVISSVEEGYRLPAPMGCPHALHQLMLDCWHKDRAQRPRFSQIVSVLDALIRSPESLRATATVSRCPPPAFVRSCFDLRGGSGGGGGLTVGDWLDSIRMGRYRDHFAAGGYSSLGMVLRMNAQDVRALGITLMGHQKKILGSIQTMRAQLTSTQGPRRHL
# [8] = molecular target: each individual kinase of the panel (Homo sapiens, UniProt Q04759)
# [9] = molecular target: each individual kinase of the panel (Homo sapiens, UniProt Q12866)
# Chain of each individual kinase of the panel (Homo sapiens, UniProt Q12866) (Q12866 21-999 limits assumed): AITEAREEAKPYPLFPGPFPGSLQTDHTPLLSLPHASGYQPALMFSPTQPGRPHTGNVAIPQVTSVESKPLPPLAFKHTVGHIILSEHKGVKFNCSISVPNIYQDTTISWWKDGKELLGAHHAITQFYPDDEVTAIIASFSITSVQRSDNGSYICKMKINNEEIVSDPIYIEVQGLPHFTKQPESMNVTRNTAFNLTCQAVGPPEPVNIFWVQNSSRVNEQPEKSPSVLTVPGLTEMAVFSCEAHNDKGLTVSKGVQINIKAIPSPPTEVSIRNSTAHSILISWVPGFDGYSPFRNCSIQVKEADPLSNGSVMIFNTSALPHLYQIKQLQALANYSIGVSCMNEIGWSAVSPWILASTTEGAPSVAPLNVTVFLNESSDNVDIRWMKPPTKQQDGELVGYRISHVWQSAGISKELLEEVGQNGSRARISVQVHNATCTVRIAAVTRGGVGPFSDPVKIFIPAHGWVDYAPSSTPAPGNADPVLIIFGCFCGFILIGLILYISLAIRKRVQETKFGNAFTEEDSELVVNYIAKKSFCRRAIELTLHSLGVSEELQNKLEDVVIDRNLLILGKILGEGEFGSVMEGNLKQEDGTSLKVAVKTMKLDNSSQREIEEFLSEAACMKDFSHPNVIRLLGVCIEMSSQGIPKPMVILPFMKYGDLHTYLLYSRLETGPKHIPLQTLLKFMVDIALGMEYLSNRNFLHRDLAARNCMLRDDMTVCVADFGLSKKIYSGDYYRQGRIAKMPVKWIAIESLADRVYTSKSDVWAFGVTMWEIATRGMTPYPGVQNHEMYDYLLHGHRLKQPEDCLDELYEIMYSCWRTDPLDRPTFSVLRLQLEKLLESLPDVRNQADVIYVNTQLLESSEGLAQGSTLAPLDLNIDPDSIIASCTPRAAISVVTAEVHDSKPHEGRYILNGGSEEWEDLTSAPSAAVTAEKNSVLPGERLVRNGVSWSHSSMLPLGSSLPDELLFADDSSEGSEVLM
# [10] = molecular target: each individual kinase of the panel (Homo sapiens, UniProt Q86Y07)
# [11] = molecular target: each individual kinase of the panel (Homo sapiens, UniProt O96017, R145W)
# [12] = molecular target: each individual kinase of the panel (Mus musculus, UniProt P16277)
# Chain of each individual kinase of the panel (Mus musculus, UniProt P16277) (P16277 2-499 limits assumed): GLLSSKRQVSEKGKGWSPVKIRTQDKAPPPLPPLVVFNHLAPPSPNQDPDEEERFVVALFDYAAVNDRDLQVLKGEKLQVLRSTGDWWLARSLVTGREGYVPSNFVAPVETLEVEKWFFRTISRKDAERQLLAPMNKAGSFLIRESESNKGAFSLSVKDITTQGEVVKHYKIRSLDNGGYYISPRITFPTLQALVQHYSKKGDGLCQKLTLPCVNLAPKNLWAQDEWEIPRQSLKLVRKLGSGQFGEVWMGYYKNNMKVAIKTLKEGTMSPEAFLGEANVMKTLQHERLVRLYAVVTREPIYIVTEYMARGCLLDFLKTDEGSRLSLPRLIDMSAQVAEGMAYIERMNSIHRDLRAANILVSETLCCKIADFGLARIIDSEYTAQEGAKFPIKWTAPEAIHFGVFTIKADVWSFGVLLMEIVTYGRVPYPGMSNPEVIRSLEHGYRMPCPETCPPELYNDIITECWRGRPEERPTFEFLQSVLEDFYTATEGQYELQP
# [13] = molecular target: each individual kinase of the panel (Homo sapiens, UniProt P05129)
# [14] = molecular target: each individual kinase of the panel (Homo sapiens, UniProt O96017)
# [15] = molecular target: each individual kinase of the panel (Homo sapiens, UniProt P43250)
# [16] = molecular target: each individual kinase of the panel (Homo sapiens, UniProt Q96RG2)
# [17] = molecular target: each individual kinase of the panel (Homo sapiens, UniProt Q13237)
# Chain of each individual kinase of the panel (Homo sapiens, UniProt Q13237) (Q13237 2-762 limits assumed): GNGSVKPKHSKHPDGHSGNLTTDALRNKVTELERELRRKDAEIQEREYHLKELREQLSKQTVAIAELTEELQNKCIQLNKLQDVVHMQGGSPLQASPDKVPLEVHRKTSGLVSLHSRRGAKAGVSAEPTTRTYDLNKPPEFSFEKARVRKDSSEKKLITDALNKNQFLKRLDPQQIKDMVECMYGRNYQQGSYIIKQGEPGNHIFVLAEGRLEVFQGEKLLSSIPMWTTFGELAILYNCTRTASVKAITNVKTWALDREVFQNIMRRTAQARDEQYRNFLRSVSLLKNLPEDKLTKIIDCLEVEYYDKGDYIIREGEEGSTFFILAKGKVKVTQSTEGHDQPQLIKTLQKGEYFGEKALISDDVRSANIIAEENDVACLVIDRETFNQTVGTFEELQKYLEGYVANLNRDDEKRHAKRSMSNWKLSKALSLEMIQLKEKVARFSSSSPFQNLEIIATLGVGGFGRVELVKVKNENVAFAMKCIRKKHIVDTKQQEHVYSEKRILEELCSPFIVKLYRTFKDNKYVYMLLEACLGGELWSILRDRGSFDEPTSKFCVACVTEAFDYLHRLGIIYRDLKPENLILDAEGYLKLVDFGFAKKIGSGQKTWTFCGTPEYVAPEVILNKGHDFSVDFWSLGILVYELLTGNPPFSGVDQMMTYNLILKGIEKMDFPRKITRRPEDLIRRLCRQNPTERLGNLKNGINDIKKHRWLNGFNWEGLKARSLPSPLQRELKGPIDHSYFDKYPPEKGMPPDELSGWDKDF
# [18] = molecular target: each individual kinase of the panel (Homo sapiens, UniProt O00418)
# Chain of each individual kinase of the panel (Homo sapiens, UniProt O00418) (O00418 2-725 limits assumed): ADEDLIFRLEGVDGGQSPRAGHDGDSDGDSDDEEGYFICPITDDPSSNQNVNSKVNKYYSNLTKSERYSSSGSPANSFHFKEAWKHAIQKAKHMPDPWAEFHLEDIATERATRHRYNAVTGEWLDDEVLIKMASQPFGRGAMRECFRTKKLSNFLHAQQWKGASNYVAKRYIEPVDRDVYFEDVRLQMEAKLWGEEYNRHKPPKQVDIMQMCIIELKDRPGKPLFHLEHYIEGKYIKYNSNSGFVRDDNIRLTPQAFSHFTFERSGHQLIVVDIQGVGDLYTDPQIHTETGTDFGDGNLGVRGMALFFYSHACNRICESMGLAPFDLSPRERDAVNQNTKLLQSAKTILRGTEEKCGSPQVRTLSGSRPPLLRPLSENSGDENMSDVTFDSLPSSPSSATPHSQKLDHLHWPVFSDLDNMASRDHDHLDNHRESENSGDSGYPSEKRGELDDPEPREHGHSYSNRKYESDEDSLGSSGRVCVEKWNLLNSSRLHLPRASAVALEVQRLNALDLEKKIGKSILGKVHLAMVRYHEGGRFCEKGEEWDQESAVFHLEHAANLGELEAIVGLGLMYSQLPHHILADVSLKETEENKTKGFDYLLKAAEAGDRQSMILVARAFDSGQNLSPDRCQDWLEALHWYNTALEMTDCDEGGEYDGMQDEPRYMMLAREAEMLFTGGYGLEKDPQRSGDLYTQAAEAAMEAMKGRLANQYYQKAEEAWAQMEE
# [19] = molecular target: each individual kinase of the panel (Homo sapiens, UniProt P34947)
# [20] = molecular target: each individual kinase of the panel (Homo sapiens, UniProt Q16620)
# Chain of each individual kinase of the panel (Homo sapiens, UniProt Q16620) (Q16620 32-822 limits assumed): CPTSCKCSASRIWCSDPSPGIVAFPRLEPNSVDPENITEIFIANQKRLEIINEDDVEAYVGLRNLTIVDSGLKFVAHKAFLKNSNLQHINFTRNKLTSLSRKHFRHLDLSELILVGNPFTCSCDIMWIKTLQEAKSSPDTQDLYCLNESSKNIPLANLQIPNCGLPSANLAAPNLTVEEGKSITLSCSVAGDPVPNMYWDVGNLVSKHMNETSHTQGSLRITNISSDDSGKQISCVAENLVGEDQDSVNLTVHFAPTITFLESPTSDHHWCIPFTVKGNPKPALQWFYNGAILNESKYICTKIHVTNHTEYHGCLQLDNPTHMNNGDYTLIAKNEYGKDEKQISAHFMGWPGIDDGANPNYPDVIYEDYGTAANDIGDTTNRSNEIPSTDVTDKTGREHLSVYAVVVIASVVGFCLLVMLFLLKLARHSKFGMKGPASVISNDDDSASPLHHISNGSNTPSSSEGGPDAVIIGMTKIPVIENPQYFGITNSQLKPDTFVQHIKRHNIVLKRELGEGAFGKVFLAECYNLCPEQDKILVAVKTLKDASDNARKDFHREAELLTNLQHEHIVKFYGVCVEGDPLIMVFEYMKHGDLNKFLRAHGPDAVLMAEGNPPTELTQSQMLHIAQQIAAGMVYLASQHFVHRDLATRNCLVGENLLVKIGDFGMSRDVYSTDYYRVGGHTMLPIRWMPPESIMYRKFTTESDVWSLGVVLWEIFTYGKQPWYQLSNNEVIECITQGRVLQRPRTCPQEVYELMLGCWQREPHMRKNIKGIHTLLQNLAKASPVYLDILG
# [21] = molecular target: each individual kinase of the panel (Homo sapiens, UniProt Q96PF2)
# [22] = molecular target: each individual kinase of the panel (Homo sapiens, UniProt Q9Y3S1)
# [23] = molecular target: each individual kinase of the panel (Homo sapiens, UniProt P52333)
# [24] = molecular target: each individual kinase of the panel (Homo sapiens, UniProt P07948)
# [25] = molecular target: each individual kinase of the panel (Homo sapiens, UniProt P53778)
# [26] = molecular target: each individual kinase of the panel (Homo sapiens, UniProt Q9BXA7)
smiles,measurement,setting,value
O=C(O)c1ccc2c(c1)nc(Nc1cccc(Cl)c1)c1ccncc12 [drawing 1136],CK2 alpha 2 percentage of activity,[1],103%
same,Mnk2 percentage of activity,[2],79%
same,SGK2 percentage of activity,[3],4%
same,MLK1 percentage of activity,[4],43%
same,TAK1 percentage of activity,[5],4%
same,CHK2(1157T) (h) percentage of activity,[6],15%
same,EPHA8 percentage of activity,[7],−10%
same,PRKCT percentage of activity,[8],−3%
same,MER percentage of activity,[9],82%
same,VRK2 percentage of activity,[10],−3%
same,CHK2(R145W) (h) percentage of activity,[11],6%
same,Blk(m) percentage of activity,[12],14%
same,PRKCG percentage of activity,[13],6%
same,CHK2 percentage of activity,[14],20%
same,GRK6 percentage of activity,[15],44%
same,PASK percentage of activity,[16],85%
same,PRKG2 percentage of activity,[17],−10%
same,eEF−2K(h) percentage of activity,[18],3%
same,GRK5 percentage of activity,[19],74%
same,TRKB percentage of activity,[20],24%
same,TSSK2 percentage of activity,[21],−11%
same,WNK2 percentage of activity,[22],4%
same,JAK3 percentage of activity,[23],37%
same,LYN percentage of activity,[24],13%
same,p38-gamma percentage of activity,[25],21%
same,TSSK1 percentage of activity,[26],−12%
